Molecules are shown by their SMILES. Calls of active or inactive are those of the source. The rule behind the calls is not given here.

The text below walks through data of ChEMBL document CHEMBL5543162, “Discovery of a Novel Orally Bioavailable FLT3-PROTAC Degrader for Efficient Treatment of Acute Myeloid Leukemia and Overcoming Resistance of FLT3 Inhibitors” (J Med Chem, 2024).

Experiment [1] has as its system MOLM-13. As to the kind of experiment: Antiproliferative activity against human MOLM-13 cells incubated for 48 hrs by CCK8 assay. As to conditions: MOLM-13, 48 h. The experiment is classed as functional, cell-based.
Experiment [2] deals with MV4-11. As to the kind of experiment: Antiproliferative activity against human MV4-11 cells expressing FLT3-ITD mutant incubated for 48 hrs by CCK8 assay. Format: functional, cell-based. As to conditions: MV4-11, 48 h. (Tetrazolium assays rely on reduction of a dye to a coloured formazan, in cell work by metabolically active cells.)
For experiment [3], the system named is MOLM-13. As to the kind of experiment: Induction of apoptosis in human MOLM-13 cells at 50 nM incubated for 24 hrs by Annexin V-FITC/PI staining based flow cytometry. The experiment is classed as functional, cell-based. On the technique in general: Flow cytometry measures light scatter and fluorescence of single cells or particles in a stream.
In experiment [4] the test system is Protein cereblon/Receptor-type tyrosine-protein kinase FLT3 (Homo sapiens), P36888+Q96SW2 [UNDEFINED MUTATION]. As to the kind of experiment: PROTAC activity at CRBN/FLT3-ITD mutant in human MV4-11 cells assessed as protein degradation at 100 nM incubated for 8 hrs by Western blot analysis. Format: cell-based. On the technique in general: Immunoblotting shows a protein as a band on a membrane.
Sequence of Protein cereblon/Receptor-type tyrosine-protein kinase FLT3 (Homo sapiens), P36888+Q96SW2 [UNDEFINED MUTATION] (P36888 whole entry, looked up, stated change not applied): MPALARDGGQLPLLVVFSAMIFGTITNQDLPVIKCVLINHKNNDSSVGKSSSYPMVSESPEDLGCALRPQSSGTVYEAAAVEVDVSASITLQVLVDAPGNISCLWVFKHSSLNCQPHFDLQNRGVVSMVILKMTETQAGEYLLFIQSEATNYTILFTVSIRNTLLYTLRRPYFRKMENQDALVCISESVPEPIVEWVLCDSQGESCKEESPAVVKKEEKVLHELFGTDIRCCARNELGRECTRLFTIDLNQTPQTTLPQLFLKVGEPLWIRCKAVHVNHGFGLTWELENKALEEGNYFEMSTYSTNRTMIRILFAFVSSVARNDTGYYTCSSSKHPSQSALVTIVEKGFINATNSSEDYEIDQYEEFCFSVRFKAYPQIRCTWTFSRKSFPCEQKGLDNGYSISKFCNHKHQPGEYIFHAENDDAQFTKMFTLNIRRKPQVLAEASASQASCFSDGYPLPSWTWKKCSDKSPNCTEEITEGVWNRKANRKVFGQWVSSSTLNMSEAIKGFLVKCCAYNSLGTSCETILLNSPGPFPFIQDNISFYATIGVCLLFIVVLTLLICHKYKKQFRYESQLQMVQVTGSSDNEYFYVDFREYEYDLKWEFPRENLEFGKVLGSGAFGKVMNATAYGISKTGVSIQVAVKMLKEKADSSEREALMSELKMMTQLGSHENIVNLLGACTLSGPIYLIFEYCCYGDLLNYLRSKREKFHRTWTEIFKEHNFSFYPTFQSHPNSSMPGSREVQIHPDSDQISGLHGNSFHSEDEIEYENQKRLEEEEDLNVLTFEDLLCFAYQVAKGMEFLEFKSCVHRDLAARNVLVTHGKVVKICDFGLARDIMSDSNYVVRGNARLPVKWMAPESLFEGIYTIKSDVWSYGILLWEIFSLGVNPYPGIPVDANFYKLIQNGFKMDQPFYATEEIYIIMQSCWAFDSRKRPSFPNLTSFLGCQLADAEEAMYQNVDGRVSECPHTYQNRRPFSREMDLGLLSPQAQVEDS
Sequence of Protein cereblon/Receptor-type tyrosine-protein kinase FLT3 (Homo sapiens), P36888+Q96SW2 [UNDEFINED MUTATION] (Q96SW2 whole entry, looked up, stated change not applied): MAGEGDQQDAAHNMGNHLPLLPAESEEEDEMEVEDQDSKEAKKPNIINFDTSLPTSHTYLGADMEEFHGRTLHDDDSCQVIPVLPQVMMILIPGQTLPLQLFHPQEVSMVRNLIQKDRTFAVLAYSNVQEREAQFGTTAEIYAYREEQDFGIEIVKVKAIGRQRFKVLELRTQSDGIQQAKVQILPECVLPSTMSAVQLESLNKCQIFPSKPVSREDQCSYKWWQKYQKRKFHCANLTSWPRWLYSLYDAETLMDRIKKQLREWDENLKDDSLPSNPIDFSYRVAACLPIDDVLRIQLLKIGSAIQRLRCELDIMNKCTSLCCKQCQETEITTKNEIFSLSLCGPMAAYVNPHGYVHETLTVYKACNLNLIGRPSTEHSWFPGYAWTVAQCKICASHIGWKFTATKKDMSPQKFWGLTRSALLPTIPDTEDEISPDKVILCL

Experiment [5] deals with MV4-11. As to the kind of experiment: Induction of apoptosis in human MV4-11 cells at 50 nM incubated for 24 hrs by Annexin V-FITC/PI staining based flow cytometry. Format: functional, cell-based.
Experiment [6] deals with Protein cereblon/Receptor-type tyrosine-protein kinase FLT3 (Homo sapiens), P36888+Q96SW2 [UNDEFINED MUTATION]. As to the kind of experiment: PROTAC activity at CRBN/FLT3-ITD mutant in human MOLM-13 cells assessed as protein degradation at 100 nM incubated for 8 hrs by Western blot analysis. Format: cell-based.
Experiment [7] relates to MOLM-13. As to the kind of experiment: Antiproliferative activity against Sunitinib-resistant human MOLM-13 cells incubated for 48 hrs by CCK8 assay. The experiment is classed as functional, cell-based. As to conditions: MOLM-13, 48 h.
Experiment [8] relates to MOLM-13. As to the kind of experiment: Antiproliferative activity against Quizartinib-resistant human MOLM-13 cells incubated for 48 hrs by CCK8 assay. The experiment is classed as functional, cell-based. The note with it: MOLM-13, 48 h.

The term IC50 denotes the midpoint of a concentration-inhibition curve. Lower therefore signals inhibition by little substance. For the compound `Cc1ncsc1-c1ccc(CNC(=O)[C@H]2C[C@H](O)CN2C(=O)[C@@H](NC(=O)CCCCCCC(=O)N2CCN(CC(=O)Nc3c[nH]c(/C=C4\C(=O)Nc5ccc(F)cc54)c3C)CC2)C(C)(C)C)cc1`, the half-maximal inhibitory concentration (IC50) with MOLM-13 [1] was 399 nM; in the experiment with MV4-11 [2] it was 262 nM.

Consider `Cc1c(NC(=O)CN2CCN(C(=O)CCCCCCCCCCNc3cccc4c3C(=O)N(C3CCC(=O)NC3=O)C4=O)CC2)c[nH]c1/C=C1\C(=O)Nc2ccc(F)cc21` (stereo not given), for which the figures for the IC50 in the experiment on MOLM-13 [1] and in the experiment with MV4-11 [2] were 273 nM and 193 nM, respectively.

Regarding `Cc1c(NC(=O)CN2CCN(CC3CCN(c4ccc5c(c4)C(=O)N(C4CCC(=O)N(C)C4=O)C5=O)CC3)CC2)c[nH]c1/C=C1\C(=O)Nc2ccc(F)cc21` (stereo not given), the outcome (with MOLM-13 [3]; in experiment [4]; in the experiment on MV4-11 [5]; in experiment [6]) was inactive.

Turning to `Cc1c(NC(=O)CN2CCN(C(=O)CCCCCNc3cccc4c3C(=O)N(C3CCC(=O)NC3=O)C4=O)CC2)c[nH]c1/C=C1\C(=O)Nc2ccc(F)cc21` (stereo not given), the IC50 with MOLM-13 [1] was 208 nM; in the experiment on MV4-11 [2], 169 nM.

As for `Cc1c(NC(=O)CN2CCN(C(=O)CCCCCCCCC(=O)NCCNc3cccc4c3C(=O)N(C3CCC(=O)NC3=O)C4=O)CC2)c[nH]c1/C=C1\C(=O)Nc2ccc(F)cc21` (stereo not given), the values for the IC50 with MOLM-13 [1] and in the experiment on MV4-11 [2] were 233 nM and 214 nM, respectively.

On to `Cc1c(NC(=O)CN2CCN(C(=O)CCCCCCCNc3cccc4c3C(=O)N(C3CCC(=O)NC3=O)C4=O)CC2)c[nH]c1/C=C1\C(=O)Nc2ccc(F)cc21` (stereo not given), for which the figures for the IC50 in the experiment with MOLM-13 [1] and in the experiment with MV4-11 [2] were 220 nM and 91.4 nM, respectively.

Turning to `Cc1ncsc1-c1ccc(CNC(=O)[C@@H]2C[C@@H](O)CN2C(=O)[C@@H](NC(=O)CCCCCC(=O)N2CCN(CC(=O)Nc3c[nH]c(/C=C4\C(=O)Nc5ccc(F)cc54)c3C)CC2)C(C)(C)C)cc1`, the IC50 with MOLM-13 [1] was greater than 1000 nM; in the experiment with MV4-11 [2], 216 nM.

As to `Cc1c(NC(=O)CN2CCN(C3CC4(CCN(c5ccc6c(c5)C(=O)N(C5CCC(=O)NC5=O)C6=O)CC4)C3)CC2)c[nH]c1/C=C1\C(=O)Nc2ccc(F)cc21` (stereo not given), the IC50 is 249 nM with MOLM-13 [1] and 51.7 nM in the experiment on MV4-11 [2].

For `Cc1ncsc1-c1ccc(CNC(=O)[C@@H]2C[C@@H](O)CN2C(=O)[C@H](NC(=O)CCCCCCCC(=O)N2CCN(CC(=O)Nc3c[nH]c(/C=C4\C(=O)Nc5ccc(F)cc54)c3C)CC2)C(C)(C)C)cc1`, the IC50 was greater than 1000 nM in the experiment on MOLM-13 [1] and 191 nM with MV4-11 [2].

`Cc1c(NC(=O)CN2CCN(C(=O)CCCCCCNc3cccc4c3C(=O)N(C3CCC(=O)NC3=O)C4=O)CC2)c[nH]c1/C=C1\C(=O)Nc2ccc(F)cc21` (stereo not given): the IC50 stood at 206 nM in the experiment on MOLM-13 [1] and 141 nM in the experiment with MV4-11 [2].

With `Cc1c(NC(=O)CN2CCN(C(=O)CCOCCOCCOCCNc3cccc4c3C(=O)N(C3CCC(=O)NC3=O)C4=O)CC2)c[nH]c1/C=C1\C(=O)Nc2ccc(F)cc21` (stereo not given), the IC50 with MOLM-13 [1] stood at 445 nM; in the experiment with MV4-11 [2], 396 nM.

As to `CCc1nc(C(N)=O)c(Nc2ccc(N3CCC(N4CCN(C)CC4)CC3)c(OC)c2)nc1NC1CCOCC1` [GILTERITINIB], the IC50 came out at 67.5 nM in the experiment with MOLM-13 [1], 40.2 nM in the experiment with MV4-11 [2], 10900 nM with MOLM-13 [7] and 2320 nM with MOLM-13 [8].

`Cc1c(NC(=O)CN2CCN(C(=O)CCCCCCC(=O)NCCNc3cccc4c3C(=O)N(C3CCC(=O)NC3=O)C4=O)CC2)c[nH]c1/C=C1\C(=O)Nc2ccc(F)cc21` (stereo not given): the IC50 in the experiment on MOLM-13 [1] turned out to be 533 nM; in the experiment with MV4-11 [2], 288 nM.

In the case of `Cc1c(NC(=O)CN2CCN(CC3CN(c4ccc5c(c4)C(=O)N(C4CCC(=O)NC4=O)C5=O)C3)CC2)c[nH]c1/C=C1\C(=O)Nc2ccc(F)cc21` (stereo not given), the IC50 is 333 nM in the experiment on MOLM-13 [1] and 126 nM in the experiment on MV4-11 [2].

`Cc1c(NC(=O)CN2CCN(C(=O)CCOCCOCCNc3cccc4c3C(=O)N(C3CCC(=O)NC3=O)C4=O)CC2)c[nH]c1/C=C1\C(=O)Nc2ccc(F)cc21` (stereo not given): the IC50 amounted to 686 nM in the experiment with MOLM-13 [1] and 201 nM with MV4-11 [2].

In the case of `Cc1c(NC(=O)CN2CCN(CCCCCCCCCOc3cccc4c3C(=O)N(C3CCC(=O)NC3=O)C4=O)CC2)c[nH]c1/C=C1\C(=O)Nc2ccc(F)cc21` (stereo not given), the values for the IC50 in the experiment on MOLM-13 [1] and with MV4-11 [2] were 276 nM and 130 nM, respectively.

For `Cc1c(NC(=O)CN2CCN(C(=O)CCCCC(=O)NCCNc3cccc4c3C(=O)N(C3CCC(=O)NC3=O)C4=O)CC2)c[nH]c1/C=C1\C(=O)Nc2ccc(F)cc21` (stereo not given), the IC50 turned out to be 657 nM in the experiment on MOLM-13 [1] and 201 nM in the experiment on MV4-11 [2].

For the compound `Cc1c(NC(=O)CN2CCN(C(=O)CCOCCOCCNC(=O)COc3cccc4c3C(=O)N(C3CCC(=O)NC3=O)C4=O)CC2)c[nH]c1/C=C1\C(=O)Nc2ccc(F)cc21` (stereo not given), the IC50 in the experiment on MOLM-13 [1] is greater than 1000 nM; with MV4-11 [2], 388 nM.

As to `CC(C)(C)c1cc(NC(=O)Nc2ccc(-c3cn4c(n3)sc3cc(OCCN5CCOCC5)ccc34)cc2)no1` [QUIZARTINIB], the IC50 in the experiment with MOLM-13 [1] came out at 39.4 nM; in the experiment with MV4-11 [2] it was 33.7 nM; in the experiment with MOLM-13 [7] it was 1230 nM; with MOLM-13 [8], 40900 nM.

With `Cc1c(NC(=O)CN2CCN(C3CCN(c4ccc5c(c4)C(=O)N(C4CCC(=O)NC4=O)C5=O)CC3)CC2)c[nH]c1/C=C1\C(=O)Nc2ccc(F)cc21` (stereo not given), the IC50 was 335 nM in the experiment on MOLM-13 [1] and 106 nM with MV4-11 [2].

For `CCN(CC)CCNC(=O)c1c(C)[nH]c(/C=C2\C(=O)Nc3ccc(F)cc32)c1C` [SUNITINIB], the IC50 in the experiment with MOLM-13 [7] is 1460 nM; with MOLM-13 [8] it was greater than 1000 nM.

Turning to `Cc1c(NC(=O)CN2CCN(C3CN(c4ccc5c(c4)C(=O)N(C4CCC(=O)NC4=O)C5=O)C3)CC2)c[nH]c1/C=C1\C(=O)Nc2ccc(F)cc21` (stereo not given), the figures for the IC50 in the experiment with MOLM-13 [1] and in the experiment with MV4-11 [2] were 367 nM and 170 nM, respectively.

With `Cc1c(NC(=O)CN2CCN(C(=O)CCOCCNC(=O)COc3cccc4c3C(=O)N(C3CCC(=O)NC3=O)C4=O)CC2)c[nH]c1/C=C1\C(=O)Nc2ccc(F)cc21` (stereo not given), the IC50 in the experiment with MOLM-13 [1] was greater than 1000 nM; in the experiment with MV4-11 [2], 812 nM.

For the compound `Cc1c(NC(=O)CN2CCN(C(=O)CCCC(=O)NCCNc3cccc4c3C(=O)N(C3CCC(=O)NC3=O)C4=O)CC2)c[nH]c1/C=C1\C(=O)Nc2ccc(F)cc21` (stereo not given), the IC50 in the experiment with MOLM-13 [1] was greater than 1000 nM; in the experiment with MV4-11 [2], 230 nM.

In the case of `Cc1ncsc1-c1ccc(CNC(=O)[C@H]2C[C@H](O)CN2C(=O)[C@@H](NC(=O)CCCCCCCCC(=O)N2CCN(CC(=O)Nc3c[nH]c(/C=C4\C(=O)Nc5ccc(F)cc54)c3C)CC2)C(C)(C)C)cc1`, the IC50 in the experiment with MOLM-13 [1] was greater than 1000 nM; in the experiment with MV4-11 [2], 410 nM.

As for `Cc1c(NC(=O)CN2CCN(C(=O)CCCCCCCC(=O)NCCNc3cccc4c3C(=O)N(C3CCC(=O)NC3=O)C4=O)CC2)c[nH]c1/C=C1\C(=O)Nc2ccc(F)cc21` (stereo not given), the IC50 in the experiment on MOLM-13 [1] came out at 358 nM; with MV4-11 [2] it was 170 nM.

For the compound `Cc1c(NC(=O)CN2CCN(C(=O)CCOCCNc3cccc4c3C(=O)N(C3CCC(=O)NC3=O)C4=O)CC2)c[nH]c1/C=C1\C(=O)Nc2ccc(F)cc21` (stereo not given), the results for the IC50 in the experiment on MOLM-13 [1] and with MV4-11 [2] were 542 nM and 326 nM, respectively.

As to `Cc1c(NC(=O)CN2CCN(C(=O)CCCCCCCCCCCNc3cccc4c3C(=O)N(C3CCC(=O)NC3=O)C4=O)CC2)c[nH]c1/C=C1\C(=O)Nc2ccc(F)cc21` (stereo not given), the IC50 is greater than 1000 nM in the experiment on MOLM-13 [1] and 372 nM in the experiment with MV4-11 [2].

Consider `Cc1c(NC(=O)CN2CCN(CC3CCN(c4cccc5c4C(=O)N(C4CCC(=O)NC4=O)C5=O)CC3)CC2)c[nH]c1/C=C1\C(=O)Nc2ccc(F)cc21` (stereo not given), for which the half-inhibitory concentration (IC50) in the experiment on MOLM-13 [1] stood at 336 nM; in the experiment with MV4-11 [2], 194 nM.

Regarding `Cc1c(NC(=O)CN2CCN(C(=O)CCCCCC(=O)NCCNc3cccc4c3C(=O)N(C3CCC(=O)NC3=O)C4=O)CC2)c[nH]c1/C=C1\C(=O)Nc2ccc(F)cc21` (stereo not given), the figures for the IC50 in the experiment on MOLM-13 [1] and with MV4-11 [2] were 487 nM and 168 nM, respectively.

Consider `Cc1ncsc1-c1ccc(CNC(=O)[C@@H]2C[C@@H](O)CN2C(=O)[C@@H](NC(=O)CCCCC(=O)N2CCN(CC(=O)Nc3c[nH]c(/C=C4\C(=O)Nc5ccc(F)cc54)c3C)CC2)C(C)(C)C)cc1`, for which the IC50 was greater than 1000 nM with MOLM-13 [1] and 360 nM in the experiment on MV4-11 [2].

For `Cc1c(NC(=O)CN2CCN(CCCCCCCCC(=O)Nc3cccc4c3C(=O)N(C3CCC(=O)NC3=O)C4=O)CC2)c[nH]c1/C=C1\C(=O)Nc2ccc(F)cc21` (stereo not given), the IC50 in the experiment on MOLM-13 [1] was 299 nM; in the experiment on MV4-11 [2], 231 nM.
